The target in this assay is GAA (human acid α-glucosidase; rhGAA) (Homo sapiens, UniProt P10253). In kind it is biochemical.

For `OC[C@H]1OC(O)[C@H](O)[C@@H](O)[C@@H]1O` (mixture of isomers) [glucose], the Ki was determined as 5.8 ± 0.6 mM.

One may read the Ki as a dissociation constant, usually derived from enzyme kinetics or from competition with a known ligand. The low end stands for tighter binding, the high end for weaker binding.

The values above are taken from paper doi:10.1101/212837v1 (biorxiv, 2017).
